Measurements published in patent US20060229258A1, “Steroidal compositions containing hydroxycarboxylic acids and methods of using the same” (priority 2003, published 2006).

Experiment: Thermal degradation of prednicarbate during preparation of the emulsion
Type: physicochemical
Conditions: in the emulsion during preparation
Experimental: In a particularly key aspect of the present inventive process, the emulsion is cooled from a temperature of about 55 to about 85° C. to a temperature of about 25 to about 45° C. before the prednicarbate is dispersed therein. This cooling step is particularly important because a substantial amount of prednicarbate degradation products will form at temperatures above 63° C. Accordingly, it is necessary to cool the emulsion before adding the prednicarbate to maintain the high prednicarbate purity and low amount of prednicarbate degradation products essential to the present inventive compositions.

SMILES: CCOC(=O)O[C@]1(C(=O)COC(=O)CC)CC[C@H]2[C@@H]3CCC4=CC(=O)C=C[C@]4(C)[C@H]3[C@@H](O)C[C@@]21C [prednicarbate]
- temperatures at which a substantial amount of prednicarbate degradation products will form: above 63 °C
